Patent US20120214847A1, “2-[1-PHENYL-5-HYDROXY-4a-SUBSTITUTED-HEXAHYDROCYCLOPENTA[F]INDAZOL-5-YL]ETHYL PHENYL DERIVATIVES AS GLUCOCORTICOID RECEPTOR LIGANDS” (Merck Sharp & Dohme Corp., priority 2009, published 2012)

Target: T1, human GR (Homo sapiens, UniProt P04150)
T1 construct: naturally expresses the human GR; endogenous in cells
T1 sequence (P04150 1-777): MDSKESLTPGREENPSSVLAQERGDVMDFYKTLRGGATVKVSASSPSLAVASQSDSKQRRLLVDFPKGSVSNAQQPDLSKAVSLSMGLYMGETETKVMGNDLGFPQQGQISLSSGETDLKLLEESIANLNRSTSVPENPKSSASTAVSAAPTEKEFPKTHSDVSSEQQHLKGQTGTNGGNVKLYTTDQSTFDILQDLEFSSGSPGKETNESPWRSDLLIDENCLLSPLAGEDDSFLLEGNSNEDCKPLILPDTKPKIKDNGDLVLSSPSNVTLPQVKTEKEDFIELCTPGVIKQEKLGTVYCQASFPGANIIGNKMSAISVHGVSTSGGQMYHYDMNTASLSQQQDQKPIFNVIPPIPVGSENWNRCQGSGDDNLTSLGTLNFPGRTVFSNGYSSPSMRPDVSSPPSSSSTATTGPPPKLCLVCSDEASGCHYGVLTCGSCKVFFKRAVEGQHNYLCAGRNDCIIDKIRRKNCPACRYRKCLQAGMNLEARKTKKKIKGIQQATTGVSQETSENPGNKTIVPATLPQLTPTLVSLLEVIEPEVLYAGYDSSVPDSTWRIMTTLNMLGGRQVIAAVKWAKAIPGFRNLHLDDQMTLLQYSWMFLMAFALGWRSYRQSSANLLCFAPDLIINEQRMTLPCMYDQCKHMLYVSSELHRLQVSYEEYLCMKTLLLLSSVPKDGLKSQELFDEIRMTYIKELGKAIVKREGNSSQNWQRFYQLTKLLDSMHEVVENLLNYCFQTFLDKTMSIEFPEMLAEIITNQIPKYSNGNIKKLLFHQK
Assay: Trans-activation modulation of glucocorticoid receptor (GRAMMER), MMTV-LUC reporter in A549 cells
Format: cell-based
Details: for Emax: A549, A549 cells, Emax relative to the activity obtained with 300 nM dexamethasone, read-out: Transactivation A549 Cells Grammer Emax (%); for EC50: A549 cells, IP = inflection point, read-out: Transactivation A549 Cells Grammer IP

Row | SMILES | Emax | EC50
1 | CC[C@]12Cc3cnn(-c4ccc(F)cc4)c3C=C1CC[C@@]2(O)CCc1ccccc1S(C)(=O)=O [Example 42, (4aS,5R)-4a-Ethyl-1-(4-fluorophenyl)-5-{2-[2-(methylsulfonyl)phenyl]ethyl}-1,4,4a,5,6,7-hexahydrocyclopenta[f]indazol-5-ol] | 34% | 16 nM
2 | CC(C)(CO)NC(=O)c1ccccc1CC[C@]1(O)CCC2=Cc3c(cnn3-c3ccc(F)cc3)C[C@@]21C1CC1 [Example 45, 2-{2-[(4aR,5R)-4a-Cyclopropyl-1-(4-fluorophenyl)-5-hydroxy-1,4,4a,5,6,7-hexahydrocyclopenta[f]indazol-5-yl]ethyl}-N-(1-hydroxy-2-methylpropan-2-yl)benzamide] | 39% | 22 nM
3 | O=C(NC1(CO)CC1)c1ccccc1CC[C@]1(O)CCC2=Cc3c(cnn3-c3ccc(F)cc3)C[C@@]21C1CC1 [Example 46, 2-{2-[(4aR,5R)-4a-Cyclopropyl-1-(4-fluorophenyl)-5-hydroxy-1,4,4a,5,6,7-hexahydrocyclopenta[f]indazol-5-yl]ethyl}-N-[1-(hydroxymethyl)cyclopropyl]benzamide] | 34% | 20 nM
4 | NC(=O)CNC(=O)c1ccccc1CC[C@]1(O)CCC2=Cc3c(cnn3-c3ccc(F)cc3)C[C@@]21C1CC1 [Example 47, N-(2-Amino-2-oxoethyl)-2-{2-[(4aR,5R)-4a-cyclopropyl-1-(4-fluorophenyl)-5-hydroxy-1,4,4a,5,6,7-hexahydrocyclopenta[f]indazol-5-yl]ethyl}benzamide] | 46% | 17 nM
5 | CC(C)(CO)NC(=O)c1cc(F)cnc1CC[C@]1(O)CCC2=Cc3c(cnn3-c3ccc(F)cc3)C[C@@]21C1CC1 [Example 48, 2-{2-[(4aR,5R)-4a-Cyclopropyl-1-(4-fluorophenyl)-5-hydroxy-1,4,4a,5,6,7-hexahydrocyclopenta[f]indazol-5-yl]ethyl}-5-fluoro-N-(1-hydroxy-2-methylpropan-2-yl)pyridine-3-carboxamide] | 50% | 26 nM
6 | O=C(NCCO)c1ccccc1CC[C@]1(O)CCC2=Cc3c(cnn3-c3ccc(F)cc3)C[C@@]21C1CC1 [Example 50, 2-{2-[(4aR,5R)-4a-Cyclopropyl-1-(4-fluorophenyl)-5-hydroxy-1,4,4a,5,6,7-hexahydrocyclopenta[f]indazol-5-yl]ethyl}-N-(2-hydroxyethyl)benzamide] | 57% | 12 nM
7 | CC[C@]12Cc3cnn(-c4ccc(F)cc4)c3C=C1CC[C@@]2(O)CCc1ccccc1S(=O)(=O)CC [Example 51, (4aS,5R)-4a-Ethyl-5-{2-[2-(ethylsulfonyl)phenyl]ethyl}-1-(4-fluorophenyl)-1,4,4a,5,6,7-hexahydrocyclopenta[f]indazol-5-ol] | 28% | 92 nM
8 | CC[C@]12Cc3cnn(-c4ccc(F)cc4)c3C=C1CC[C@@]2(O)CCc1ncccc1C(N)=O [Example 52, 2-{2-[(4aS,5R)-4a-Ethyl-1-(4-fluorophenyl)-5-hydroxy-1,4,4a,5,6,7-hexahydrocyclopenta[f]indazol-5-yl]ethyl}pyridine-3-carboxamide] | 59% | 64 nM
9 | CC[C@]12Cc3cnn(-c4ccc(F)cc4)c3C=C1CC[C@@]2(O)CCc1ncc(F)cc1C(N)=O [Example 53, 2-{2-[(4aS,5R)-4a-Ethyl-1-(4-fluorophenyl)-5-hydroxy-1,4,4a,5,6,7-hexahydrocyclopenta[f]indazol-5-yl]ethyl}-5-fluoropyridine-3-carboxamide] | 49% | 77 nM
10 | CS(=O)(=O)c1ccccc1CC[C@]1(O)CCC2=Cc3c(cnn3-c3ccc(F)cc3)C[C@@]21C1CC1 [Example 58, (4aR,5R)-4a-Cyclopropyl-1-(4-fluorophenyl)-5-{2-[2-(methylsulfonyl)phenyl]ethyl}-1,4,4a,5,6,7-hexahydrocyclopenta[f]indazol-5-ol] | 11% | 9 nM
11 | CCS(=O)(=O)c1ccccc1CC[C@]1(O)CCC2=Cc3c(cnn3-c3ccc(F)cc3)C[C@@]21C1CC1 [Example 59, (4aR,5R)-4a-Cyclopropyl-5-{2-[2-(ethylsulfonyl)phenyl]ethyl}-1-(4-fluorophenyl)-1,4,4a,5,6,7-hexahydrocyclopenta[f]indazol-5-ol] | 7% | 35 nM
12 | CC[C@]12Cc3cnn(-c4ccc(F)cc4)c3C=C1CC[C@@]2(O)CCc1cccc(F)c1CC(N)=O [Example 60, 2-(2-{2-[(4aS,5R)-4a-Ethyl-1-(4-fluorophenyl)-5-hydroxy-1,4,4a,5,6,7-hexahydrocyclopenta[f]indazol-5-yl]ethyl}-6-fluorophenyl)acetamide] | 39% | 38 nM
13 | CC[C@]12Cc3cnn(-c4ccc(F)cc4)c3C=C1CC[C@@]2(O)CCc1ncccc1S(=O)(=O)C(C)C [Example 62, (4aS,5R)-4a-Ethyl-1-(4-fluorophenyl)-5-{2-[3-(propan-2-ylsulfonyl)pyridin-2-yl]ethyl}-1,4,4a,5,6,7-hexahydrocyclopenta[f]indazol-5-ol] | 43% | 35 nM

Second part, the molecule after the results:

Row | Emax | EC50 | SMILES
14 | 28% | 138 nM | CC[C@]12Cc3cnn(-c4ccc(F)cc4)c3C=C1CC[C@@]2(O)CCc1nccc(C2CC2)c1C(=O)OC [Example 41, Methyl 4-cyclopropyl-2-{2-[(4aS,5R)-4a-ethyl-1-(4-fluorophenyl)-5-hydroxy-1,4,4a,5,6,7-hexahydrocyclopenta[f]indazol-5-yl]ethyl}pyridine-3-carboxylate]
15 | 47% | 260 nM | NC(=O)CNC(=O)c1cccnc1CC[C@]1(O)CCC2=Cc3c(cnn3-c3ccc(F)cc3)C[C@@]21C1CC1 [Example 43, N-(2-Amino-2-oxoethyl)-2-{2-[(4aR,5R)-4a-cyclopropyl-1-(4-fluorophenyl)-5-hydroxy-1,4,4a,5,6,7-hexahydrocyclopenta[f]indazol-5-yl]ethyl}pyridine-3-carboxamide]
16 | 39% | 154 nM | NC(=O)CNC(=O)c1cc(F)cnc1CC[C@]1(O)CCC2=Cc3c(cnn3-c3ccc(F)cc3)C[C@@]21C1CC1 [Example 44, N-(2-Amino-2-oxoethyl)-2-{2-[(4aR,5R)-4a-cyclopropyl-1-(4-fluorophenyl)-5-hydroxy-1,4,4a,5,6,7-hexahydrocyclopenta[f]indazol-5-yl]ethyl}-5-fluoropyridine-3-carboxamide]
17 | 30% | 9 nM | NC(=O)c1c(C2CC2)ccnc1CC[C@]1(O)CCC2=Cc3c(cnn3-c3ccc(F)cc3)C[C@@]21C1CC1 [Example 49, 4-Cyclopropyl-2-{2-[(4aR,5R)-4a-cyclopropyl-1-(4-fluorophenyl)-5-hydroxy-1,4,4a,5,6,7-hexahydrocyclopenta[f]indazol-5-yl]ethyl}pyridine-3-carboxamide]
18 | 23% | 35 nM | COc1ccnc(CC[C@]2(O)CCC3=Cc4c(cnn4-c4ccc(F)cc4)C[C@@]32C2CC2)c1C(N)=O [Example 54, 2-{2-[(4aR,5R)-4a-Cyclopropyl-1-(4-fluorophenyl)-5-hydroxy-1,4,4a,5,6,7-hexahydrocyclopenta[f]indazol-5-yl]ethyl}-4-methoxypyridine-3-carboxamide]
19 | 38% | 7 nM | NC(=O)c1c(C(F)(F)F)ccnc1CC[C@]1(O)CCC2=Cc3c(cnn3-c3ccc(F)cc3)C[C@@]21C1CC1 [Example 55, 2-{2-[(4aR,5R)-4a-Cyclopropyl-1-(4-fluorophenyl)-5-hydroxy-1,4,4a,5,6,7-hexahydrocyclopenta[f]indaozol-5-yl]ethyl}-4-(trifluoromethyl)pyridine-3-carboxamide]
20 | 9% | 14 nM | NC(=O)Cc1ccccc1CC[C@]1(O)CCC2=Cc3c(cnn3-c3ccc(F)cc3)C[C@@]21C1CC1 [Example 56, 2-(2-{2-[(4aR,5S)-4a-Cyclopropyl-1-(4-fluorophenyl)-5-hydroxy-1,4,4a,5,6,7-hexahydrocyclopenta[f]indazol-5-yl]ethyl}phenyl)acetamide]
21 | 11% | 31 nM | NC(=O)[C@H](F)c1c(F)cccc1CC[C@]1(O)CCC2=Cc3c(cnn3-c3ccc(F)cc3)C[C@@]21C1CC1 [Example 57, (2R)-2-(2-{2-[(4aR,5R)-4a-Cyclopropyl-1-(4-fluorophenyl)-5-hydroxy-1,4,4a,5,6,7-hexahydrocyclopenta[f]indazol-5-yl]ethyl}-6-fluorophenyl)-2-fluoroethanamide]
22 | 13% | 21 nM | NC(=O)Cc1c(F)cccc1CC[C@]1(O)CCC2=Cc3c(cnn3-c3ccc(F)cc3)C[C@@]21C1CC1 [Example 61, 2-(2-{2-[(4aR,5R)-4a-Cyclopropyl-1-(4-fluorophenyl)-5-hydroxy-1,4,4a,5,6,7-hexahydrocyclopenta[f]indazol-5-yl]ethyl}-6-fluorophenyl)acetamide]
